According to publication PMC9574860, “Chemical Toolkit for PARK7: Potent, Selective, and High-Throughput” (Journal of Medicinal Chemistry, 2022):
“Also recorded” adds a separate entry of the source. Read-outs that look alike come from different tables or passages of the source.

Tests used:
Type in all cases: biochemical
[1] = system: DUBs; test: DUB activity profiling in HEK293T cell lysate with general DUB probe Rho-Ub-PA; conditions: compound 5 μM 1 h 37 °C, then Rho-Ub-PA 30 min, Figure S5
Experimental: Due to the structural similarity of PARK7 inhibitor JYQ-88 and UCHL1 inhibitor 8RK64 and the fact that many cyanimide-containing compounds have been identified as DUB inhibitors,[35],[37] we investigated the inhibitory potential of JYQ-88 and JYQ-92 toward DUBs. After treating the HEK293T cell lysate with JYQ-88 and JYQ-92, along with UCHL1 inhibitors, 6RK73 and 8RK64 as controls,[38] the remaining activity of DUBs was determined using the general DUB probe Rho-Ub-PA (Figure S5).[39]
Figure S5. Fluorescence labeling of DUBs to investigate their remaining activity by Rh-Ub-
PA after the treatment with PARK7 inhibitor JYQ-88 and probe JYQ-92. UCHL1 inhibitors,
6RK73 and 8RK64, were used as a control. HEK293T cell lysate was treated with 5 μM final
MOPS SDS running buffer (Novex, NuPAGE) and visualized by fluorescence scanning on a
Typhoon FLA 9500 (GE Healthcare Life Sciences) using a Rhodamine channel (λex/em
(1 picture or pasted object on this page, not shown here)

[2] = molecular target: T1, UCHL1 (Homo sapiens, UniProt P09936); test: UCHL1 activity assay (Ub-Rho-Morpholine or Ub-AMC substrate); conditions: UCHL1 1 nM, 1 h preincubation
T1 sequence (P09936 1-223): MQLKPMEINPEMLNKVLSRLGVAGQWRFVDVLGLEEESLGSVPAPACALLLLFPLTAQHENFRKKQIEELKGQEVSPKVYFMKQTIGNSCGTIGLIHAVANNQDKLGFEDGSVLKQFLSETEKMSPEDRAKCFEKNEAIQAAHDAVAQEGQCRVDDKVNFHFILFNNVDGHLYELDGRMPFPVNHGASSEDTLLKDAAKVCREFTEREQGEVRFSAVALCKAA

[3] = molecular target: T1, UCHL1; test: Gel-based competition assay with probe 8RK59, UCHL1 band
Experimental: To assess the inhibitory potency and selectivity of these compounds toward PARK7 and UCHL1, we performed a gel-based competition assay (Figure 3A).[36] A mixture of equal amounts of PARK7 and UCHL1 (1 μM) was treated with each of the synthesized compounds (2 μM) for 1 h, followed by incubation with fluorescent probe 8RK59 (2 μM) for 30 min. Samples were resolved by SDS-PAGE, and the gel was scanned for fluorescence. Inhibition of PARK7 or UCHL1 is reflected by the disappearance of their corresponding bands (Figure 3B). […] The inhibition potential of JYQ-88 against PARK7 was assessed in a similar assay where PARK7 was incubated with a serial dilution of JYQ-88 before treatment with probe 8RK59 (Figure 3C). A clear inhibition is visible at 0.5 μM, and full inhibition is achieved between 1 and 2 μM. […] The selectivity of JYQ-88 between UCHL1 and PARK7 was further confirmed in a direct competition assay between equal amounts of PARK7 and UCHL1 (Figure 3F). PARK7 inhibition was observed starting from 0.5 μM JYQ-88, whereas inhibition of UCHL1 was only detected at 20 μM. Since JYQ-88 and 8RK64 are enantiomers, we assumed that the interactions with PARK7 should be similar. To investigate how the chiral center influences the selectivity, we solved the crystal structure of the PARK7−JYQ-88 complex with 1.42 Å resolution (Figure 3G, Table S1, PDB 7PA3). The global positioning of the inhibitor in between the two α-helices was similar to that for 8RK64. […] This way, the thiazolo-pyridine part of JYQ-88 is bound in a similar manner as 8RK64 and the earlier observed interactions are largely the same. The formation of the isothiourea moiety, stabilized by the interaction with Glu18, and the interaction between the thiazole amine and the amide NH2 of the Asn76 side chain are still present. However, the interaction between the azidoacetyl carbonyl with the Leu128 backbone carbonyl can no longer be observed due to the rotation of the azidoacetyl moiety. The Lys132 residue also seems to have rotated (compared to Figure 2C).
The assay was performed in Tris buffer as described above.

[4] = molecular target: T2, PARK7 (Homo sapiens, UniProt Q99497); test: Gel-based competition assay in HEK293T cell lysate with probe JYQ-92; design: GST (N, cleaved yes); made in house; host or cells: E. coli BL21(DE3) Rosetta2; conditions: inhibitor 1 h 37 °C, then JYQ-92 1 μM 30 min, Figure 4E
T2 sequence (Q99497 1-189): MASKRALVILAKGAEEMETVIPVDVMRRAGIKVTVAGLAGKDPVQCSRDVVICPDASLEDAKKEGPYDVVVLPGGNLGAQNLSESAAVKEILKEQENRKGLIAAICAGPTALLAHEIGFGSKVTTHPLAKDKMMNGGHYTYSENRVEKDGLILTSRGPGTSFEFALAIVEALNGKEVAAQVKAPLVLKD
Text: We next assessed whether we could measure the inhibitory activity of an inhibitor against PARK7 in a cell lysate using JYQ-92 to label the remaining activity of PARK7. […] The disappearance of the labeling band is a measure for inhibition.

IC50 ([2]; Figure 3E, read-out: UCHL1 IC50): 11.1 µM
IC50 ([2]; read-out: UbRhoMP assay UCHL1 IC50): 11.2 µM
Inhibition of UCHL1 (disappearance of 8RK59-labeled band) ([3]; compound 2 μM, 1 h, PARK7 and UCHL1 1 μM each, then 8RK59 2 μM 30 min, Figure 3B): without inhibiting
Concentration at which inhibition of UCHL1 was detected ([3]; direct competition, equal amounts of PARK7 and UCHL1, Figure 3F): 20 µM
Inhibitor concentration at which the PARK7 labeling band intensity is already decreased [4]: 0.1 µM
Inhibitor concentration from which the PARK7 labeling band has nearly disappeared [4]: 1 µM
Compound: N#CN1CC[C@@H](C(=O)Nc2nc3c(s2)CN(C(=O)CN=[N+]=[N-])CC3)C1 [JYQ-88, (R)-N-(5-(2-Azidoacetyl)-4,5,6,7-tetrahydrothiazolo[5,4-c]pyridin-2-yl)-1-cyanopyrrolidine-3carboxamide]
Effect on remaining DUB activity (Rho-Ub-PA labeled bands) [1]: no influence on DUB activity; also recorded: without showing any effect
